Assay results as given in ChEMBL document CHEMBL1201862, “PubChem BioAssay data set” (2004).
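Cells were grown in 96-well plates and exposed to each compound for 48 hours at five concentrations; endpoints were interpolated linearly between bracketing concentrations, or set to the highest concentration if not reached. GI50: concentration for 50% inhibition of growth.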 Activity calls are given as the source filed them. Rule as the data show it: active = GI50 up to about 1.1 µM and inactive = higher.

Legend:
Test in all cases: NCI anticancer screen, dose series, 48 h
[1] = tested on: NCI-H460
[2] = tested on: Malme-3M
[3] = tested on: MOLT-4
[4] = tested on: SW-620
[5] = tested on: SF-539
[6] = tested on: UACC-62
[7] = tested on: COLO 205
[8] = tested on: HOP-62
[9] = tested on: KM-20L2
[10] = tested on: SK-MEL-5
[11] = tested on: SK-MEL-2
[12] = tested on: NCI-H226
[13] = tested on: M14
[14] = tested on: A549
[15] = tested on: UACC-257
[16] = tested on: DLD-1
[17] = tested on: M19-MEL
[18] = tested on: NCI/ADR-RES
[19] = tested on: SNB-19

Row | SMILES | GI50 [1] | GI50 [2] | GI50 [3] | GI50 [4] | GI50 [5] | GI50 [6] | GI50 [7] | GI50 [8] | GI50 [9] | GI50 [10] | GI50 [11] | GI50 [12] | GI50 [13] | GI50 [14] | GI50 [15] | GI50 [16] | GI50 [17] | GI50 [18] | GI50 [19]
1 | N#CCCc1nc2ccc(Br)cc2c(=O)n1-c1ccc(O)c([N+](=O)[O-])c1 | 27.5 µM (inactive) | 17.3 µM (inactive) | 19.6 µM (inactive) | 22.1 µM (inactive) | 18.8 µM (inactive) | 18.9 µM (inactive) | 22.9 µM (inactive) | 36.5 µM (inactive) | 46.3 µM (inactive) | 18.4 µM (inactive) | 18.6 µM (inactive) | 19.9 µM (inactive) | 21 µM (inactive) | 55 µM (inactive) | 30.1 µM (inactive) | 16.9 µM (inactive) | 19.4 µM (inactive) |  | 
2 | C#C[C@]1(O)CC[C@H]2[C@@H]3CCC4=C/C(=N\OCCN(CC)CC)CC[C@]4(C)[C@H]3CC[C@@]21C | 5.08 µM (inactive) | 3.25 µM (inactive) | 0.122 µM (active) | 7.18 µM (inactive) | 4.26 µM (inactive) | 3.44 µM (inactive) | 3.02 µM (inactive) | 3.58 µM (inactive) |  | 2.44 µM (inactive) | 3.27 µM (inactive) | 11.9 µM (inactive) | 3.02 µM (inactive) | 5.77 µM (inactive) | 4.31 µM (inactive) |  |  | 2.59 µM (inactive) | 5.06 µM (inactive)
3 | COC(=O)c1c2c(cc3c1CCC3)CCC2 | 94.6 µM (inactive) | 48.2 µM (inactive) | 21.6 µM (inactive) | > 100 µM (inactive) | 92.7 µM (inactive) | 51.1 µM (inactive) | 96.2 µM (inactive) | > 100 µM (inactive) |  | 15.9 µM (inactive) | 24.8 µM (inactive) | 54.7 µM (inactive) | > 100 µM (inactive) | 61.2 µM (inactive) | 48 µM (inactive) |  |  | > 100 µM (inactive) | > 100 µM (inactive)
4 | COc1cc2c(cc1OCCCCCCCCN1C(=O)c3cccc4cccc(c34)C1=O)N=C[C@@H]1CCCN1C2=O | 20.7 µM (inactive) | 21 µM (inactive) | 3.48 µM (inactive) | 18.7 µM (inactive) | 3.45 µM (inactive) | 13.5 µM (inactive) | 4.71 µM (inactive) | 42 µM (inactive) |  | 12.7 µM (inactive) | 14.6 µM (inactive) | 14.7 µM (inactive) | 37.3 µM (inactive) | 20 µM (inactive) | 26.2 µM (inactive) |  |  | 3.27 µM (inactive) | 35.3 µM (inactive)
5 | CCOC(=O)NC(=O)c1cn(CCSCCOC(=O)NCCCCCCNC(=O)OCCSCCn2cc(C(=O)NC(=O)OCC)c(=O)n(C)c2=O)c(=O)n(C)c1=O | 29.9 µM (inactive) | 24.6 µM (inactive) | 5.68 µM (inactive) | 29.8 µM (inactive) | 25.9 µM (inactive) | 24.8 µM (inactive) | 56.2 µM (inactive) | 51.5 µM (inactive) | 39.7 µM (inactive) |  | 34.2 µM (inactive) | 21.1 µM (inactive) |  | 45.2 µM (inactive) | 24.4 µM (inactive) | 72.8 µM (inactive) | 21.4 µM (inactive) |  | 34 µM (inactive)
6 | C/C(=N\N=C(/S)N(C)C)c1cccnn1 | 0.394 µM (active) | 0.76 µM (active) | 0.188 µM (active) | 0.612 µM (active) | 0.513 µM (active) | 0.486 µM (active) | 0.468 µM (active) | 1.05 µM (active) |  | 0.486 µM (active) | 7.66 µM (inactive) | 0.849 µM (active) | 0.594 µM (active) | 0.832 µM (active) | 0.438 µM (active) |  |  | 0.521 µM (active) | 1.46 µM (inactive)
7 | COn1cc(CO)c2ccccc21 | > 100 µM (inactive) | 53 µM (inactive) | 28.8 µM (inactive) | 27.5 µM (inactive) | > 100 µM (inactive) | 43.3 µM (inactive) | 51.4 µM (inactive) | > 100 µM (inactive) |  | 64.1 µM (inactive) | > 54.3 µM (inactive) | 1.57 µM (inactive) | > 86.9 µM (inactive) | > 62.1 µM (inactive) | 25.2 µM (inactive) |  |  | > 90.8 µM (inactive) | > 100 µM (inactive)
8 | N=C(N)SCC(=O)O | > 100 µM (inactive) | > 100 µM (inactive) | > 100 µM (inactive) | > 100 µM (inactive) | > 100 µM (inactive) | > 100 µM (inactive) | > 100 µM (inactive) | > 100 µM (inactive) |  | > 100 µM (inactive) | > 100 µM (inactive) | > 100 µM (inactive) | > 100 µM (inactive) | > 100 µM (inactive) | > 100 µM (inactive) |  |  | > 100 µM (inactive) | > 100 µM (inactive)
9 | COC(=O)C(COC(C)=O)NC(=O)/C=C/c1ccc(O)c(OC(C)=O)c1 (stereo unspecified) | 60.3 µM (inactive) | > 100 µM (inactive) | 13.6 µM (inactive) | 31 µM (inactive) | 15.1 µM (inactive) | > 100 µM (inactive) | > 100 µM (inactive) | 49.3 µM (inactive) |  | > 100 µM (inactive) | > 100 µM (inactive) | > 100 µM (inactive) | > 100 µM (inactive) | > 100 µM (inactive) | > 100 µM (inactive) |  |  | 75.3 µM (inactive) | > 100 µM (inactive)
10 | Cc1c(NC(=S)NN)c(=O)n(-c2ccccc2)n1C | > 100 µM (inactive) | 32.3 µM (inactive) | > 100 µM (inactive) | > 100 µM (inactive) | > 100 µM (inactive) | > 100 µM (inactive) | > 100 µM (inactive) | > 100 µM (inactive) |  | > 100 µM (inactive) | > 100 µM (inactive) | 1.58 µM (inactive) | > 100 µM (inactive) | > 100 µM (inactive) | > 100 µM (inactive) |  |  | > 100 µM (inactive) | > 100 µM (inactive)
11 | CN(C)Cc1cc(/N=N/c2c(Cl)cccc2Cl)ccc1O | 75 µM (inactive) | 74.5 µM (inactive) | 67.3 µM (inactive) | 79.6 µM (inactive) | > 100 µM (inactive) | 62.2 µM (inactive) | > 100 µM (inactive) | > 100 µM (inactive) |  | 17.5 µM (inactive) | > 100 µM (inactive) | 35.2 µM (inactive) | > 10 µM (inactive) | 61.5 µM (inactive) | 79.6 µM (inactive) |  |  | > 100 µM (inactive) | > 100 µM (inactive)
12 | CC(NC1CCCC[C@@H]1O)c1ccccc1 (stereo partly specified) | > 100 µM (inactive) | > 100 µM (inactive) | > 100 µM (inactive) | > 100 µM (inactive) |  | > 100 µM (inactive) | > 100 µM (inactive) | > 100 µM (inactive) | > 100 µM (inactive) | > 100 µM (inactive) | > 100 µM (inactive) | > 100 µM (inactive) | > 100 µM (inactive) | > 100 µM (inactive) | > 100 µM (inactive) | > 100 µM (inactive) | > 100 µM (inactive) |  | > 100 µM (inactive)
13 | CCOC(=O)C1=C(C)N(NC(N)=O)C(C)(O)C12CCOC2=O (stereo unspecified) | > 100 µM (inactive) | > 100 µM (inactive) | > 100 µM (inactive) | > 100 µM (inactive) | > 100 µM (inactive) | > 100 µM (inactive) |  | > 100 µM (inactive) | > 100 µM (inactive) | > 100 µM (inactive) | > 100 µM (inactive) | > 100 µM (inactive) | > 100 µM (inactive) | > 100 µM (inactive) | > 100 µM (inactive) | > 100 µM (inactive) | > 100 µM (inactive) |  | > 100 µM (inactive)
14 | CC1=C[P+](c2ccccc2)(c2ccccc2)c2ccccc2O1 | 20.5 µM (inactive) | 4.71 µM (inactive) | 2.15 µM (inactive) | 5.86 µM (inactive) | 7.89 µM (inactive) | 8 µM (inactive) | 1.29 µM (inactive) | 11.6 µM (inactive) |  | 2.81 µM (inactive) | 4.17 µM (inactive) | 15.2 µM (inactive) | 3.39 µM (inactive) | 13.6 µM (inactive) | 2.79 µM (inactive) |  |  | > 100 µM (inactive) | 7.11 µM (inactive)
15 | CN(C)/N=C(\CCN1CCCC1)CC(c1ccccc1)c1c(O)c2ccccc2oc1=O (stereo unspecified) |  | > 100 µM (inactive) |  | > 100 µM (inactive) | > 100 µM (inactive) | > 100 µM (inactive) | > 100 µM (inactive) | > 100 µM (inactive) | > 100 µM (inactive) |  | > 100 µM (inactive) | > 100 µM (inactive) | > 100 µM (inactive) | > 100 µM (inactive) | > 100 µM (inactive) | > 100 µM (inactive) | > 100 µM (inactive) |  | > 100 µM (inactive)
16 | O=C(NNc1ccc([N+](=O)[O-])cc1[N+](=O)[O-])/C(O)=C\C(=O)c1ccccc1 | 19 µM (inactive) | 30 µM (inactive) | 17.7 µM (inactive) | 16.6 µM (inactive) | 15.4 µM (inactive) | 15.5 µM (inactive) | 18.4 µM (inactive) | 16.3 µM (inactive) |  | 20.7 µM (inactive) | 27.1 µM (inactive) | 21.2 µM (inactive) | 14.3 µM (inactive) | 17.6 µM (inactive) | 29 µM (inactive) |  |  | 16.3 µM (inactive) | 25.4 µM (inactive)
17 | O=C(O)COc1ccccc1C(=O)Nc1ccccc1 | > 100 µM (inactive) | > 100 µM (inactive) | > 100 µM (inactive) | > 100 µM (inactive) | > 100 µM (inactive) | > 100 µM (inactive) | > 100 µM (inactive) | > 100 µM (inactive) | > 100 µM (inactive) | > 100 µM (inactive) | > 100 µM (inactive) | > 100 µM (inactive) | > 100 µM (inactive) | > 100 µM (inactive) | > 100 µM (inactive) | > 100 µM (inactive) | > 100 µM (inactive) |  | > 100 µM (inactive)
